Where no end group is shown, it is not given here.
Assays:
[1] = administered separately; Dakin et al. 2001; cited from earlier work
hGLP-1-R = target: T1, hGLP-1-R (Homo sapiens, UniProt P43220); test: GLP-1 receptor efficacy assay (cAMP) in HEK293 cells expressing hGLP-1-R; format: cell-based
T1 construct: expressed in transfected cells
Source text: The DNA encoding the Glucagon-R or the GLP-1-R was amplified by PCR using primers encoding terminal restriction sites for subcloning. The 5′-end primers additionally encoded a near Kozak consensus sequence to ensure efficient translation. The PCR products encoding the Glucagon-R or the GLP-1-R were subcloned into a mammalian expression vector. The fidelity of the DNA encoding the Glucagon-R and the GLP-1-R was confirmed by DNA sequencing. As the mammalian expression vector additionally encodes for G418 resistance, transfected cells may be selected by applying selection pressure with G418. […] 48 hr after transfection cells were seeded for limited dilution cloning and selected with 1 mg/ml G418 in the culture medium. […] One Glucagon-R expressing clone and one GLP-1-R expressing clone were chosen for compound profiling.
HEK293 cells expressing the hGlucagon-R, or hGLP-1-R are seeded at 40,000 cells per well in 96-well microtiter plates coated with 0.01% poly-L-lysine and grown for 1 day in culture in […] growth medium. On the day of analysis, growth medium is removed and the cells washed once with 200 μl Tyrode buffer. Cells are incubated in 100 μl Tyrode buffer containing increasing concentrations of test peptides, 100 μM IBMX, and 6 mM glucose for up 15 min at 37° C. The reaction is stopped by addition of 25 μl 0.5 M HCl and incubated on ice for 60 min. The cAMP content is estimated using the FlashPlate® cAMP kit from Perkin-Elmer. EC50 and relative efficacy are estimated by computer aided curve fitting.

[2] = Body weight in diet induced obese (DIO) mice; format: in vivo, C57BI/6J male mice; conditions: HFD (DIO) mice
Procedure: Efficacious glucagon/GLP-1 receptor agonists are tested on 9-15 weeks old, 40 C57BI/6J male mice which have been kept on a High Fat Diet (HFD)—60% high-fat food (Cat. No. D12492: 20% protein, 20% carbohydrate, and 60% fat, 5.2 kcal/g; Research Diets, New Jersey, USA, for 4 weeks. The high-fat food contains soybean oil (25/773.85 g) and lard (245/773.85 g).
DIO-mice are treated with vehicle or co-agonists for 2-4 weeks by bolus administration (s.c.) twice daily. Body weight is monitored daily throughout the experiment. At the end of the experimental period animals are sacrificed, blood collected for analysis of glycated hemoglobin and a range of hormones and peptides involved in regulation of appetite, food intake, body weight, and energy balances. In addition, the epididymal/perigonadal fat pads and retroperitoneal fat (WAT) as well as the intrascapular Brown Adipose Tissue (BAT) are dissected out and weighed. […]
Following an acclimatization treatment with 100 μl vehicle (PBS) once a day for two weeks DIO-mice were treated with vehicle, control peptides or Compound 3 for 4 weeks by bolus administration (s.c.) twice daily. Body weight was monitored daily throughout the experiment. […]

T1 sequence (P43220 24-463): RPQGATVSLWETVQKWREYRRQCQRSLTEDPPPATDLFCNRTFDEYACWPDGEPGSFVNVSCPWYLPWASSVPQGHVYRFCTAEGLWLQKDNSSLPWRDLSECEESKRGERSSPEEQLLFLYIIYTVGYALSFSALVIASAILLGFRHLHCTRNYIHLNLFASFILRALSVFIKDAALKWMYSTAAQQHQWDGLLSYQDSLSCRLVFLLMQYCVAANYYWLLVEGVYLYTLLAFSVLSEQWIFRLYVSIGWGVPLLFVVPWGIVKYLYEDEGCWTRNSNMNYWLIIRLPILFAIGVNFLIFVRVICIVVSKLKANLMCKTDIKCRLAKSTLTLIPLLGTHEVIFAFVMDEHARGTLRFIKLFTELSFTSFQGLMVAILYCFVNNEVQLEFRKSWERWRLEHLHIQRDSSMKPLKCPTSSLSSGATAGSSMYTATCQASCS

| Substance | effect on food intake [1] | ratio (GluR / GLP1R EC values) (hGLP-1-R; first test) | EC50[Glu]/EC50[GLP-1] ratio (hGLP-1-R; re-testing) | EC50 (hGLP-1-R; re-testing, cAMP, HEK293 hGLP-1-R) | body weight gain ([2]; s.c. bolus 500 nmol/kg twice daily, 28 days, p<0.05 vs vehicle HFD) | weight reducing effect over time ([2]; s.c. twice daily, 4 weeks (FIG. 2)) |
| --- | --- | --- | --- | --- | --- | --- |
| KRNRNNIA [IP-1, C-terminal octapeptide of oxyntomodulin] | fail to affect food intake |  |  |  |  |  |
| H-HSQGTFTSDYSKYLDRARADDFVAWLKST-NH2 [Compound 3] |  | 1.27 | 2.13 | 0.23 nM | able to reduce body weight gain comparable to oxyntomodulin treatment | sustained over time comparable to oxyntomodulin treatment and significantly different from exendin-4 treatment |

From patent US7994122B2, “Glucagon analogues” (Zealand Pharma A/S, priority 2007, dated 2011)
